The record followed here is patent publication US20090221642A1, “MUSCARINIC RECEPTOR AGONISTS, COMPOSITIONS, METHODS OF TREATMENT THEREOF, AND PROCESSES FOR PREPARATION THEREOF-176” (AstraZeneca AB, priority 2008, published 2009).

For this assay, the target named is T1, cloned human M4 receptor (human Muscarinic receptor subtype 4) (Homo sapiens, UniProt P08173).
T1 construct: purchased Perkin-Elmer RBHM4M; host or cells: Chinese hamster ovary cells (CHO) membranes
T1 sequence (P08173 1-479): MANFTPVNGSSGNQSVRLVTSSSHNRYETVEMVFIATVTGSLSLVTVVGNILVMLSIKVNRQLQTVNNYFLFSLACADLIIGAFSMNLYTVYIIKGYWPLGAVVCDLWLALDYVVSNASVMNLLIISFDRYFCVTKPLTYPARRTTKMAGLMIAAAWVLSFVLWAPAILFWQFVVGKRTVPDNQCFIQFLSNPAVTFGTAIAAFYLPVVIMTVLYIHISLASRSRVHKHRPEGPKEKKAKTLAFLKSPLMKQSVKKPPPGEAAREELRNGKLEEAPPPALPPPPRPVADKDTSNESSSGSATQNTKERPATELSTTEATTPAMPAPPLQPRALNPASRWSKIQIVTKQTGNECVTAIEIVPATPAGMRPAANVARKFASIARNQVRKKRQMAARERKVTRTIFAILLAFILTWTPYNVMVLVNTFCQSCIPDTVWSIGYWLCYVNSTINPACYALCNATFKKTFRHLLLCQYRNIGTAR
As to the kind of experiment: hM4 receptor GTPγS binding. The assay is classed as biochemical. The settings on record: CHO cell membranes expressing hM4; [35S]GTPγS binding; read-out: hM4 EC50. In outline: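 Membranes from CHO cells expressing cloned human M4, with SPA beads, 20 µM GDP and 0.4 nM [35S]GTPγS in HEPES buffer pH 7.4, incubated 60 min at room temperature. Antagonism measured as reversal of 10 µM acetylcholine stimulation; 10-point, threefold dilution curves fitted sigmoidally to give EC50, IC50 and Emax.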
(GTPγS resists hydrolysis and so accumulates on activated G proteins.)

Some results are limits rather than exact numbers.

As a reminder, the EC50 is the concentration that produces a half-maximal response. Regarding `COC(=O)N1CCC(C)(N2CCC(N3C(=O)Cc4ccc(C)cc43)CC2)C1` (single isomer, unassigned) [Example 67, methyl 3-methyl-3-(4-(6-methyl-2-oxoindolin-1-yl)piperidin-1-yl)pyrrolidine-1-carboxylate], the EC50 turned out to be 15.1 µM. For `CCOC(=O)N1CCC(C)(N2CCC(N3C(=O)Cc4ccc(F)cc43)CC2)C1` (single isomer, unassigned) [Example 75, ethyl 3-(4-(6-fluoro-2-oxoindolin-1-yl)piperidin-1-yl)-3-methylpyrrolidine-1-carboxylate], the EC50 was over 18.9 µM. For `CCOC(=O)N1CCC(C)(N2CCC(n3c(=O)[nH]c4ccc(C)cc43)CC2)C1` (centres unmarked) [Example 16, ethyl 3-methyl-3-(4-(6-methyl-2-oxo-2,3-dihydro-1H-benzo[d]imidazol-1-yl)piperidin-1-yl)pyrrolidine-1-carboxylate], the EC50 came out at 1.7 µM.

Regarding `COC(=O)N1CCC(C)(N2CCC(n3c(=O)[nH]c4cc(F)ccc43)CC2)C1` (single isomer, unassigned) [Example 23, methyl 3-(4-(5-fluoro-2-oxo-2,3-dihydro-1H-benzo[d]imidazol-1-yl)piperidin-1-yl)-3-methylpyrrolidine-1-carboxylate], the EC50 stood at 3.87 µM. Take `C#CCOC(=O)N1CCC(C)(N2CCC(n3c(=O)[nH]c4ccc(C)cc43)CC2)C1` (single isomer, unassigned) [Example 43, prop-2-ynyl 3-methyl-3-(4-(6-methyl-2-oxo-2,3-dihydro-1H-benzo[d]imidazol-1-yl)piperidin-1-yl)pyrrolidine-1-carboxylate]: the EC50 turned out to be 0.46 µM.
